PubChem BioAssay (NCI)
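Here, GI50 denotes the concentration required for 50% inhibition of growth. TGI marks complete inhibition of growth.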

Key:
Assay in all cases: DTP human tumour cell line panel, 384-well format
[1] = system: 786-0 renal
[2] = system: A498 renal
[3] = system: A549 NSCLC
[4] = system: ACHN renal
[5] = system: BT-549 breast
[6] = system: CAKI-1 renal
[7] = system: CCRF-CEM leukemia
[8] = system: COLO 205 colon
[9] = system: HCC-2998 colon
[10] = system: HCT-15 colon
[11] = system: HL-60(TB) leukemia
[12] = system: HOP-62 NSCLC
[13] = system: HOP-92 NSCLC
[14] = system: HT29 colon
[15] = system: IGROV1 ovarian
[16] = system: K-562 leukemia
[17] = system: KM12 colon
[18] = system: LOX IMVI melanoma
[19] = system: M14 melanoma
[20] = system: MALME-3M melanoma
[21] = system: MDA-MB-231 breast
[22] = system: MDA-MB-435 melanoma
[23] = system: MDA-MB-468 breast
[24] = system: MOLT-4 leukemia
[25] = system: NCI-H226 lung
[26] = system: NCI-H23 lung
[27] = system: NCI-H322M lung
[28] = system: NCI-H460 NSCLC
[29] = system: NCI-H522 lung
[30] = system: NCI/ADR-RES ovarian
[31] = system: OVCAR-3 ovarian
[32] = system: OVCAR-4 ovarian
[33] = system: OVCAR-5 ovarian
[34] = system: OVCAR-8 ovarian
[35] = system: PC-3 prostate
[36] = system: RPMI-8226 leukemia
[37] = system: RXF 393 renal
[38] = system: SF-268 CNS
[39] = system: SF-295 CNS
[40] = system: SF-539 CNS
[41] = system: SK-MEL-2 melanoma
[42] = system: SK-MEL-28 melanoma
[43] = system: SK-MEL-5 melanoma
[44] = system: SK-OV-3 ovarian
[45] = system: SN12C renal
[46] = system: SNB-19 CNS
[47] = system: SR leukemia
[48] = system: SW-620 colon
[49] = system: T-47D breast
[50] = system: TK-10 renal
[51] = system: U251 glioblastoma
[52] = system: UACC-257 melanoma
[53] = system: UACC-62 melanoma
[54] = system: UO-31 renal

## CN(C)C/C=C/C(=O)Nc1ccc(C(=O)N[C@@]2(C)CCC[C@@H](Nc3ncc(Cl)c(-c4c[nH]c5ccccc45)n3)C2)nc1
[1]
  GI50: < 10 nM
  TGI: 26.2 nM
[2]
  GI50: < 10 nM
  TGI: 15.2 nM
[3]
  GI50: < 10 nM
  TGI: 116 nM
[4]
  GI50: < 10 nM
  TGI: 88.6 nM
[5]
  GI50: < 10 nM
  TGI: < 10 nM
[6]
  GI50: < 10 nM
  TGI: 103 nM
[7]
  GI50: < 10 nM
  TGI: < 10 nM
[8]
  GI50: < 10 nM
  TGI: < 10 nM
[9]
  GI50: < 10 nM
  TGI: 15.8 nM
[10]
  GI50: < 10 nM
  TGI: 64.6 nM
[11]
  GI50: < 10 nM
  TGI: < 10 nM
[12]
  GI50: < 10 nM
  TGI: < 10 nM
[13]
  GI50: < 10 nM
  TGI: 136 nM
[14]
  GI50: < 10 nM
  TGI: 72.2 nM
[15]
  GI50: < 10 nM
  TGI: 127 nM
[16]
  GI50: < 10 nM
  TGI: 43.5 nM
[17]
  GI50: < 10 nM
  TGI: 10.8 nM
[18]
  GI50: < 10 nM
  TGI: < 10 nM
[19]
  GI50: < 10 nM
  TGI: 13.7 nM
[20]
  GI50: 12.5 nM
  TGI: 26.3 nM
[21]
  GI50: < 10 nM
  TGI: 115 nM
[22]
  GI50: < 10 nM
  TGI: 15.7 nM
[23]
  GI50: < 10 nM
  TGI: < 10 nM
[24]
  GI50: < 10 nM
  TGI: < 10 nM
[25]
  GI50: < 10 nM
  TGI: 34.1 nM
[26]
  GI50: < 10 nM
  TGI: 14.4 nM
[27]
  GI50: < 10 nM
  TGI: 41.3 nM
[28]
  GI50: < 10 nM
  TGI: < 10 nM
[29]
  GI50: < 10 nM
  TGI: < 10 nM
[30]
  GI50: 202 nM
  TGI: 1090 nM
[31]
  GI50: < 10 nM
  TGI: 12.9 nM
[32]
  GI50: < 10 nM
  TGI: 35.9 nM
[33]
  GI50: < 10 nM
  TGI: 1310 nM
[34]
  GI50: < 10 nM
  TGI: 27.8 nM
[35]
  GI50: < 10 nM
  TGI: 44.4 nM
[36]
  GI50: < 10 nM
  TGI: < 10 nM
[37]
  GI50: < 10 nM
  TGI: < 10 nM
[38]
  GI50: < 10 nM
  TGI: 16.2 nM
[39]
  GI50: < 10 nM
  TGI: 67.5 nM
[40]
  GI50: < 10 nM
  TGI: 20.4 nM
[41]
  GI50: < 10 nM
  TGI: 10.9 nM
[42]
  GI50: < 10 nM
  TGI: < 10 nM
[43]
  GI50: < 10 nM
  TGI: 13.3 nM
[44]
  GI50: < 10 nM
  TGI: 85.4 nM
[45]
  GI50: < 10 nM
  TGI: 17.2 nM
[46]
  GI50: < 10 nM
  TGI: 1340 nM
[47]
  GI50: < 10 nM
  TGI: < 10 nM
[48]
  GI50: < 10 nM
  TGI: 22.9 nM
[49]
  GI50: 15.6 nM
  TGI: 144 nM
[50]
  GI50: 16.7 nM
  TGI: 101 nM
[51]
  GI50: < 10 nM
  TGI: 30.2 nM
[52]
  GI50: < 10 nM
  TGI: 15.4 nM
[53]
  GI50: < 10 nM
  TGI: < 10 nM
[54]
  GI50: 14 nM
  TGI: 42 nM
